Assay results as given in patent publication US20090162280A1, “DETECTING SOLUBLE A-BETA” (GENERAL ELECTRIC COMPANY, priority 2007, published 2009).

Legend:
[1] = biological target: T1, soluble A-beta oligomers (beta-amyloid 1-42 oligomer, 20% biotin) (Homo sapiens, UniProt P05067); assay: SPA competition binding against tritium labeled 49b on soluble A-beta oligomers; conditions: for % inhibition: 50 uM unlabeled competitor, 130 nM tritium labeled-49b; for IC50: 130 nM 3H-49b, unlabeled competitor
T1 construct: 1 mg of human beta-amyloid 1-42 (H-1368, Bachem); purchased Bachem H-1368 (unlabelled), H-5642 (biotinylated)
T1 sequence (P05067 672-713): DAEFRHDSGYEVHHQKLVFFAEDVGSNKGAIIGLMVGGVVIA
Protocol: A. Soluble A-beta. 1 mg of human beta-amyloid 1-42 (H-1368, Bachem) and 500 uL of 1,1,1,3,3,3 hexafluoro-2-propanol (HFIP) (Aldrich) were chilled in separate bottles on ice for 30 minutes. Cold beta-amyloid 1-42 was solubilized with cold HFIP. The mixture was incubated for 1 hr at room temperature until it turned clear. The resulting solution was then dried to a film under vacuum. The film was dissolved again in cold HFIP and incubated another 1 hr at room temperature. The resulting solution was separated into aliquots in several microcentrifuge tubes. HFIP was removed under vacuum, and the films were stored at −20° C. until use. To prepare soluble oligomer, the film was dissolved in appropriate amount of dry DMSO (Sigma), and Ham's F12 media (Biosource) or PBS (Sigma, D8537) was added and incubated at 4° C. for 24 hours (final concentration of 200 uM or 0.9 mg/mL beta-amyloid in 2% DMSO). The tube containing the soluble oligomers was centrifuged at 13,000 rpm for 5 minutes, and its supernatant was transferred to a clean tube.
The three compounds shown in Table 1 were synthesized and evaluated for their ability to bind to soluble A-beta using the scintillation proximity assays (SPA) and/or AFM as described below. The percent inhibition reported was for 50 uM of the indicated unlabeled competitor and 130 nM of tritium labeled-49b.
(§1) For SPA and atomic force microscopy experiments, preparations of soluble oligomers and fibrils contained 20% biotinylated beta-amyloid 1-42 and 1-40, respectively (H-5642, H-5914, Bachem).
Lyophilized Streptavidin-Ysi beads (GE Healthcare) were reconstituted to 100 mg/mL in deionized water, and then further diluted in deionized water to give a suspension containing 0.25 mg/10 μL water. Unlabeled 49b, PIB and compound of formula III (353207) were dissolved in DMSO to give a final stock concentration of 15 mM.
For the saturation-binding assay, isotopic dilution of radiolabeled 49b with unlabeled 49b was performed. ^3H-49b was added to 500 uM of unlabeled 49b to a final concentration of 50 μCi/mL ^3H-49b. The probe solution was then serially diluted in PBS to give six solutions giving 6.6, 13.1, 26.3, 52.5, 105, or 210 uM in the final assay well. Each concentration of the probe solution was incubated with 12 μg beta-amyloid 1-42 oligomer (20% biotin) or 1-40 (20% biotin) fibrils in a total volume of 90 μL. Assays were incubated at room temp for 2 hrs before addition of 10 μL YSi-streptavidin (0.25 mg) SPA bead. Assays were set-up in triplicate in 96-well NBS plates (Costar). Assays were incubated overnight and counted the following morning. […] The specific activities of four probes were different, however the level of activity was the same at the concentrations where the probes were tested. […]

[2] = biological target: T2, beta-amyloid 1-40 fibrils (20% biotin) (Homo sapiens, UniProt P05067); assay: SPA saturation binding of 3H-49b to 1-40 fibrils; conditions: same conditions as for soluble oligomers; compared with oligomers
T2 construct: Lyophilized human beta-amyloid 1-40 peptide (Catalog number H-1194, Bachem); purchased Bachem H-1194 (unlabelled), H-5914 (biotinylated)
T2 sequence (P05067 672-711): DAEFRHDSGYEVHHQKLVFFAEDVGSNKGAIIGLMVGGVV
Protocol: B. Insoluble A-beta (1-40) fibril formation: Lyophilized human beta-amyloid 1-40 peptide (Catalog number H-1194, Bachem) was solubilized with HFIP to produce a dry clear film following the process described above for beta-amyloid 1-42. The clear film of beta-amyloid 1-40 was diluted with 10 mM phosphate buffer, pH 7.4, containing 1 mM EDTA, such that final Aβ concentration was 0.5 mg/ml, then mixed briefly. The solution was incubated at 37° C. on an orbital shaker set at 200 rpm for 48 h. A cloudy solution was produced, and the fibril production was confirmed by measuring changes in fluorescence of Thioflavin T, as well as by atomic force microscopy and transmission electron microscopy. Fibrils were used immediately after their production was confirmed.
as §1
For the saturation-binding assay, isotopic dilution of radiolabeled 49b with unlabeled 49b was performed. ^3H-49b was added to 500 uM of unlabeled 49b to a final concentration of 50 μCi/mL ^3H-49b. The probe solution was then serially diluted in PBS to give six solutions giving 6.6, 13.1, 26.3, 52.5, 105, or 210 uM in the final assay well. […] Assays were incubated overnight and counted the following morning. […]

1-42 fibrils = 1-42 fibrils (Homo sapiens, UniProt P05067); assay: SPA binding of 3H-49b to 1-42 fibrils; conditions: same conditions used to measure binding to soluble oligomers
Sequence of 1-42 fibrils (P05067 672-713): as the sequence (P05067 672-713) above

[3] = biological target: T1, soluble A-beta oligomers (beta-amyloid 1-42 oligomer, 20% biotin); assay: SPA saturation / direct binding of tritium labeled probes to soluble A-beta oligomers
Protocol: For the saturation-binding assay, isotopic dilution of radiolabeled 49b with unlabeled 49b was performed. ^3H-49b was added to 500 uM of unlabeled 49b to a final concentration of 50 μCi/mL ^3H-49b. The probe solution was then serially diluted in PBS to give six solutions giving 6.6, 13.1, 26.3, 52.5, 105, or 210 uM in the final assay well. Each concentration of the probe solution was incubated with 12 μg beta-amyloid 1-42 oligomer (20% biotin) or 1-40 (20% biotin) fibrils in a total volume of 90 μL. Assays were incubated at room temp for 2 hrs before addition of 10 μL YSi-streptavidin (0.25 mg) SPA bead. Assays were set-up in triplicate in 96-well NBS plates (Costar). Assays were incubated overnight and counted the following morning. […] Assay conditions were the same as described in saturation binding assay.
(§2) Data analyses were performed using Sigma Plot or GraphPad Prism® version 4. Curves were fitted using non-linear regression. KD values and IC50 values were estimated from the binding curves.
A direct binding assay using tritium labeled 49b was performed against oligomers or fibrils by scintillation proximity assay (SPA). Beta-amyloid containing 20% biotin and tritiated 49b were incubated in solution for two hours prior to addition of the Ysi-Streptavidin beads.

Aβ 1-40 fibrils = biological target: T3, Aβ 1-40 fibrils (Homo sapiens, UniProt P05067); assay: SPA competition binding against 3H-PIB on A-beta fibrils; conditions: ~30 nM [3H]PIB, 10 μg Aβ 1-40 fibrils, unlabeled competitor
T3 construct: Lyophilized human beta-amyloid 1-40 peptide (Catalog number H-1194, Bachem); purchased Bachem H-1194 (unlabelled), H-5914 (biotinylated)
T3 sequence (P05067 672-711): as the sequence (P05067 672-711) above
Protocol: For the ^3H-PIB binding reaction, 10 μg Aβ 1-40 fibrils were incubated with ˜30 nM [^3H]PIB in the presence of the unlabeled competitors in a total volume of 90 μl PBS. […] Non-specific binding wells contained PBS instead of fibril/oligomer. Assays were incubated at room temperature for 2 hr before addition of 10 μl YSi-streptavidin bead (0.13 mg). Assays were shaken for 1 min and then incubated overnight before counting the following morning using Microbeta.
as §2

[4] = saturation binding with oligomers

SMILES	% inhibition [1] [%]	binding to 1-40 fibrils [2]	IC50 [1] [µM]	affinity for 1-42 fibrils (1-42 fibrils)	Kd ([3]; 3H-49b isotopically diluted with unlabeled 49b, incubated with oligomers, read-out: binding constant (saturation binding)) [µM]	specificity, oligomers over fibrils ([3]; direct binding of 3H-49b, oligomers versus fibrils)	Bmax [3, 4]	molar ratio probe:beta-amyloid at Bmax [3, 4]	competition of tritium labeled PIB binding to fibrils (in words) (Aβ 1-40 fibrils)
CNc1ccc(-c2nc3ccc(O)cc3s2)cc1 [Formula I, 2-(4-methylamino)phenylbenzothiazol-6-ol, reference compound]	3								
O=Cc1ccc(-c2oc3ccccc3c2CO)o1 [Formula II, 2-(2-formyl-5-furanyl)-3-hydroxymethyl benzofuran]		Much less binding was observed	60	no measurable affinity could be determined	50	showed specificity to oligomers over fibrils	60-80 nmol/mg beta-amyloid	1 probe:3-4 beta-amyloid	not competed
O=C(Nc1ccc(O)c(C(=O)O)c1)c1ccc(-c2ccc(C(=O)Nc3ccc(O)c(C(=O)O)c3)cc2)cc1 [Formula III]	82		1 to 7						did not compete
